Laboratory results: US20260306644A1, “ANTIBODY RECRUITING MOLECULES FOR THE TREATMENT OF CORONAVIRUS DISEASE-19” (priority 2023, published 2026)
Several values for one entry are separate records, joined by “and”; a condition that tells them apart may be missing. Equal entries are not always repeated. Where two headings read alike, the source gives them in different places. Positions of bridges follow the written chain, without caps; N, C: chain ends. No end group written: not given here.

Experiments:
[1] = system: Spike RBD coated magnetic beads / RAW 264.7 macrophages; test: Antibody-dependent cellular phagocytosis (ADCP), RAW 264.7 macrophages and Spike RBD coated magnetic beads, flow cytometry; assay type: cell-based; details: 37° C., 2 hours, read-out: SARS-COV-2 ADCP EC50
Protocol: The ability of the compounds to mediate antibody-dependent cellular phagocytosis (ADCP) was assessed using RAW 264.7 macrophages and Spike RBD coated magnetic beads (https://www.acrobiosystems.com/P3194-SARS-CoV-2-Spike-RBD-coupled-Magnetic-Beads.html). Spike RBD coated magnetic beads (3 ul per well) were added to each well of a round bottom 96-well plates. RAW264.7 cells (50,000 cells per well) were added to the beads. Next, the compounds were administered to predetermined final concentrations. The cell-bead mixtures were incubated at 37° C. for 2 hours. The mixtures were then analyzed by flow cytometry.

SARS-CoV-2 Spike protein = SARS-CoV-2 Spike protein (Severe acute respiratory syndrome coronavirus 2, UniProt P0DTC2); test: Ternary binding of SARS-CoV-2 Spike protein (293T cells expressing Spike-GFP, IgG-AF647, flow cytometry); assay type: cell-based; details: 293T cells expressing Spike-GFP; IgG-AF647 10 μg/ml; repeat values/batches listed separately; read-out: SARS-CoV-2 Ternary binding EC50
[2] = target: T1, SARS-CoV-2 Spike A (wild-type) (Severe acute respiratory syndrome coronavirus 2, UniProt P0DTC2); test: MSD ACE2 competition assay (inhibition of Spike binding with ACE2, ECL), A (wild-type)
T1 construct: purchased Meso Scale Diagnostics, LLC V-PLEX SARS-CoV-2 Panel 13 (ACE2) Kit / Panel 23 (ACE2) Kit

[3] = IC50 Wild Type, Wild Type Spike
[4] = read-out: IC50 Wild Type, Wild Type Spike

Row | Compound | EC50 [1] | EC50 (SARS-CoV-2 Spike protein) | IC50 [2, 3] | IC50 [2, 4]
1 | CC[C@H](C)[C@H](NC(=O)[C@H](CC(C)C)NC(=O)[C@H](CC(=O)O)NC(=O)[C@H](CO)NC(=O)[C@@H](NC(=O)[C@H](CCCNC(=N)N)NC(=O)[C@H](CCSC)NC(=O)[C@H](CO)NC(=O)[C@H](C)NC(=O)[C@H](CCC(=O)O)NC(=O)[C@H](C)NC(=O)[C@H](Cc1c[nH]cn1)NC(=O)CNC(=O)[C@H](CC(C)C)NC(=O)[C@H](CCC(=O)O)NC(=O)[C@H](CC(=O)O)NC(=O)[C@H](CC(C)C)NC(=O)[C@H](CC(C)C)NC(=O)[C@H](CCCNC(=N)N)NC(=O)[C@H](CCSC)NC(=O)[C@@H](NC(=O)[C@H](CCC(=O)O)NC(=O)[C@H](Cc1ccc(O)cc1)NC(=O)[C@@H](NC(=O)[C@H](CCCCN)NC(=O)[C@H](CCC(N)=O)NC(=O)[C@H](CC(C)C)NC(=O)[C@@H](NC(=O)[C@H](Cc1c[nH]c2ccccc12)NC(=O)[C@H](CCC(=O)O)NC(=O)[C@H](CCCCN)NC(=O)[C@H](CC(=O)O)NC(C)=O)[C@@H](C)CC)[C@@H](C)CC)[C@@H](C)CC)C(C)C)C(=O)N[C@@H](Cc1ccc(O)cc1)C(=O)N[C@@H](CCC(=O)O)C(=O)N[C@@H](Cc1ccccc1)C(=O)N[C@@H](CCSC)C(=O)N[C@@H](CCCCN)C(=O)N[C@@H](CCCCN)C(=O)NCC(=O)N[C@@H](CC(=O)O)C(=O)N[C@@H](CCC(=O)O)C(=O)N[C@@H](CCCNC(=N)N)C(=O)N[C@@H](CC(C)C)C(=O)N[C@@H](CC(C)C)C(=O)N[C@@H](CCC(=O)O)C(=O)N[C@@H](CCC(=O)O)C(=O)N[C@@H](C)C(=O)N[C@@H](CCC(=O)O)C(=O)N[C@@H](CCCNC(=N)N)C(=O)N[C@@H](CC(C)C)C(=O)N[C@@H](CC(C)C)C(=O)N[C@@H](CCC(=O)O)C(=O)N[C@@H](CCC(=O)O)C(=O)N[C@H](C(=O)N[C@@H](CCC(=O)O)C(=O)N[C@@H](CCCNC(=N)N)C(=O)NCCOCCOCCOCCOCCOCCOCCOCCOCCC(=O)NCCOCCOCCOCCOCCOCCOCCOCCOCCC(=O)N[C@@H](CC(=O)O)C(=O)N[C@H]1CSSC[C@@H](C(=O)N[C@H](C(N)=O)[C@@H](C)O)NC(=O)[C@H](Cc2c[nH]c3ccccc23)NC(=O)[C@H](C(C)C)NC(=O)[C@H](CC(C)C)NC(=O)[C@H](CCC(=O)O)NC(=O)CNC(=O)[C@H](CC(C)C)NC(=O)[C@H](Cc2c[nH]cn2)NC(=O)[C@H](Cc2c[nH]c3ccccc23)NC(=O)[C@H](C)NC1=O)C(C)C [Compound 124] | 0.00043 µM |  |  | 
2 | CC[C@H](C)[C@H](NC(=O)[C@H](CC(C)C)NC(=O)[C@H](CC(=O)O)NC(=O)[C@H](CO)NC(=O)[C@@H](NC(=O)[C@H](CCCNC(=N)N)NC(=O)[C@H](CCSC)NC(=O)[C@H](CO)NC(=O)[C@H](C)NC(=O)[C@H](CCC(=O)O)NC(=O)[C@H](C)NC(=O)[C@H](Cc1c[nH]cn1)NC(=O)CNC(=O)[C@H](CC(C)C)NC(=O)[C@H](CCC(=O)O)NC(=O)[C@H](CC(=O)O)NC(=O)[C@H](CC(C)C)NC(=O)[C@H](CC(C)C)NC(=O)[C@H](CCCNC(=N)N)NC(=O)[C@H](CCSC)NC(=O)[C@@H](NC(=O)[C@H](CCC(=O)O)NC(=O)[C@H](Cc1ccc(O)cc1)NC(=O)[C@@H](NC(=O)[C@H](CCCCN)NC(=O)[C@H](CCC(N)=O)NC(=O)[C@H](CC(C)C)NC(=O)[C@@H](NC(=O)[C@H](Cc1c[nH]c2ccccc12)NC(=O)[C@H](CCC(=O)O)NC(=O)[C@H](CCCCN)NC(=O)[C@H](CC(=O)O)NC(C)=O)[C@@H](C)CC)[C@@H](C)CC)[C@@H](C)CC)C(C)C)C(=O)N[C@@H](Cc1ccc(O)cc1)C(=O)N[C@@H](CCC(=O)O)C(=O)N[C@@H](Cc1ccccc1)C(=O)N[C@@H](CCSC)C(=O)N[C@@H](CCCCN)C(=O)N[C@@H](CCCCN)C(=O)NCC(=O)N[C@@H](CC(=O)O)C(=O)N[C@H]1CSSC[C@@H](C(=O)N[C@H](C(N)=O)[C@@H](C)O)NC(=O)[C@H](Cc2c[nH]c3ccccc23)NC(=O)[C@H](C(C)C)NC(=O)[C@H](CC(C)C)NC(=O)[C@H](CCC(=O)O)NC(=O)CNC(=O)[C@H](CC(C)C)NC(=O)[C@H](Cc2c[nH]cn2)NC(=O)[C@H](Cc2c[nH]c3ccccc23)NC(=O)[C@H](C)NC1=O [Compound 129] |  | 0.0023 µM and 0.003 µM | 0.025 µM | 
3 | CC[C@H](C)[C@H](NC(=O)[C@H](CC(C)C)NC(=O)[C@H](CC(=O)O)NC(=O)[C@H](CO)NC(=O)[C@@H](NC(=O)[C@H](CCCNC(=N)N)NC(=O)[C@H](CCSC)NC(=O)[C@H](CO)NC(=O)[C@H](C)NC(=O)[C@H](CCC(=O)O)NC(=O)[C@H](C)NC(=O)[C@H](Cc1c[nH]cn1)NC(=O)CNC(=O)[C@H](CC(C)C)NC(=O)[C@H](CCC(=O)O)NC(=O)[C@H](CC(=O)O)NC(=O)[C@H](CC(C)C)NC(=O)[C@H](CC(C)C)NC(=O)[C@H](CCCNC(=N)N)NC(=O)[C@H](CCSC)NC(=O)[C@@H](NC(=O)[C@H](CCC(=O)O)NC(=O)[C@H](Cc1ccc(O)cc1)NC(=O)[C@@H](NC(=O)[C@H](CCCCN)NC(=O)[C@H](CCC(N)=O)NC(=O)[C@H](CC(C)C)NC(=O)[C@@H](NC(=O)[C@H](Cc1c[nH]c2ccccc12)NC(=O)[C@H](CCC(=O)O)NC(=O)[C@H](CCCCN)NC(=O)[C@H](CC(=O)O)NC(=O)[C@@H](CCC(=O)O)NC(=O)[C@@H]1CSCC(=O)N[C@@H](C)C(=O)N[C@@H](CO)C(=O)N[C@@H](Cc2ccc(O)cc2)C(=O)N[C@@H](Cc2c[nH]cn2)C(=O)N[C@@H](CC(C)C)C(=O)NCC(=O)N[C@@H](CCC(=O)O)C(=O)N[C@@H](CC(C)C)C(=O)N[C@@H](C(C)C)C(=O)N[C@@H](Cc2c[nH]c3ccccc23)C(=O)N2Cc3ccccc3C[C@H]2C(=O)NC(C)(C)C(=O)N1)[C@@H](C)CC)[C@@H](C)CC)[C@@H](C)CC)C(C)C)C(=O)N[C@@H](Cc1ccc(O)cc1)C(=O)N[C@@H](CCC(=O)O)C(=O)N[C@@H](Cc1ccccc1)C(=O)N[C@@H](CCSC)C(=O)N[C@@H](CCCCN)C(=O)N[C@@H](CCCCN)C(=O)NCC(=O)N[C@@H](CC(=O)O)C(=O)N[C@@H](CCC(=O)O)C(=O)N[C@@H](CCCNC(=N)N)C(=O)N[C@@H](CC(C)C)C(=O)N[C@@H](CC(C)C)C(=O)N[C@@H](CCC(=O)O)C(=O)N[C@@H](CCC(=O)O)C(=O)N[C@@H](C)C(=O)N[C@@H](CCC(=O)O)C(=O)N[C@@H](CCCNC(=N)N)C(=O)N[C@@H](CC(C)C)C(=O)N[C@@H](CC(C)C)C(=O)N[C@@H](CCC(=O)O)C(=O)N[C@@H](CCC(=O)O)C(=O)N[C@H](C(=O)N[C@@H](CCC(=O)O)C(=O)N[C@@H](CCCNC(=N)N)C(=O)O)C(C)C [Compound 130] | 0.0013 µM and 0.0015 µM |  |  | 
4 | CC[C@H](C)[C@H](NC(=O)[C@H](CC(C)C)NC(=O)[C@H](CC(=O)O)NC(=O)[C@H](CO)NC(=O)[C@@H](NC(=O)[C@H](CCCNC(=N)N)NC(=O)[C@H](CCSC)NC(=O)[C@H](CO)NC(=O)[C@H](C)NC(=O)[C@H](CCC(=O)O)NC(=O)[C@H](C)NC(=O)[C@H](Cc1c[nH]cn1)NC(=O)CNC(=O)[C@H](CC(C)C)NC(=O)[C@H](CCC(=O)O)NC(=O)[C@H](CC(=O)O)NC(=O)[C@H](CC(C)C)NC(=O)[C@H](CC(C)C)NC(=O)[C@H](CCCNC(=N)N)NC(=O)[C@H](CCSC)NC(=O)[C@@H](NC(=O)[C@H](CCC(=O)O)NC(=O)[C@H](Cc1ccc(O)cc1)NC(=O)[C@@H](NC(=O)[C@H](CCCCN)NC(=O)[C@H](CCC(N)=O)NC(=O)[C@H](CC(C)C)NC(=O)[C@@H](NC(=O)[C@H](Cc1c[nH]c2ccccc12)NC(=O)[C@H](CCC(=O)O)NC(=O)[C@H](CCCCN)NC(=O)[C@H](CC(=O)O)NC(C)=O)[C@@H](C)CC)[C@@H](C)CC)[C@@H](C)CC)C(C)C)C(=O)N[C@@H](Cc1ccc(O)cc1)C(=O)N[C@@H](CCC(=O)O)C(=O)N[C@@H](Cc1ccccc1)C(=O)N[C@@H](CCSC)C(=O)N[C@@H](CCCCN)C(=O)N[C@@H](CCCCN)C(=O)NCC(=O)NCCOCCOCCOCCOCCOCCOCCOCCOCCC(=O)NCCOCCOCCOCCOCCOCCOCCOCCOCCC(=O)NCCOCCOCCOCCOCCOCCOCCOCCOCCC(=O)N[C@@H](CC(=O)O)C(=O)N[C@H]1CSSC[C@@H](C(=O)N[C@H](C(=O)O)[C@@H](C)O)NC(=O)[C@H](Cc2c[nH]c3ccccc23)NC(=O)[C@H](C(C)C)NC(=O)[C@H](CC(C)C)NC(=O)[C@H](CCC(=O)O)NC(=O)CNC(=O)[C@H](CC(C)C)NC(=O)[C@H](Cc2c[nH]cn2)NC(=O)[C@H](Cc2c[nH]c3ccccc23)NC(=O)[C@H](C)NC1=O [Compound 168] |  | 0.00019 µM |  | 0.00326 µM
5 | Ac-DCAWHLGELVWCTILQKIYEIMRLLDELGHAEASMRVSDLIYEFMKK (disulfide 2-12) [Compound 122] |  | > 0.01 µM | 0.0335 µM | 
6 | Ac-DKEWILQKIYEIMRLLDELGHAEASMRVSDLIYEFMKKGGGGGGGGGDCAWHLGELVWCT (disulfide 49-59) [Compound 166] |  | 0.00023 µM |  | 0.0166 µM
7 | Ac-ILQKIYEICRLLDELGHAEASMRCSDLIYEFMKKGDCAWHLGELVWCT-NH2 (disulfide 9-24, 37-47) [Compound 141] |  | 0.0034 µM and 0.0021 µM |  | 0.0251 µM and 0.0438 µM and 0.0301 µM
8 | Ac-ILQKIYEIMRLCDELGHAEACMRVSDLIYEFMKKGDCAWHLGELVWCT-NH2 (disulfide 12-21, 37-47) [Compound 139] |  | 0.017 µM and 0.013 µM |  | 0.315 µM and 0.514 µM and 0.259 µM
9 | Ac-ILQKIYEIMRLLDELGHAEASMRVSDLIYEFMKKDCAWHLGELVWCT (disulfide 36-46) [Compound 118] |  | 0.00053 µM and 0.00061 µM | 0.0619 µM and 0.0625 µM | 
10 | Ac-QKIYEICRLLDELGHAEASMRCSDLIYEFMKKGDCAWHLGELVWCT-NH2 (disulfide 7-22, 35-45) [Compound 140] |  | > 0.1 µM |  | 1.56 µM
11 | Ac-QKIYEIMRLCDELGHAEACMRVSDLIYEFMKKGDCAWHLGELVWCT-NH2 (disulfide 10-19, 35-45) [Compound 164] |  | > 0.1 µM |  | > 10 µM
12 | ILQKIYEIMRLLDELGHAEASMRVSDLIYEFMKKDCAWHLGELVWCT (disulfide 36-46) [Compound 119] |  | 0.0024 µM and 0.0029 µM | 0.0466 µM and 0.0667 µM | 
